The target in the experiment is T1, human mAChR M4 (Homo sapiens, UniProt P08173).
T1 construct: expressed in transfected cells; host or cells: CHO-K1 (ATCC), stably expressing hM4 and Gqi5
T1 sequence (P08173 1-479): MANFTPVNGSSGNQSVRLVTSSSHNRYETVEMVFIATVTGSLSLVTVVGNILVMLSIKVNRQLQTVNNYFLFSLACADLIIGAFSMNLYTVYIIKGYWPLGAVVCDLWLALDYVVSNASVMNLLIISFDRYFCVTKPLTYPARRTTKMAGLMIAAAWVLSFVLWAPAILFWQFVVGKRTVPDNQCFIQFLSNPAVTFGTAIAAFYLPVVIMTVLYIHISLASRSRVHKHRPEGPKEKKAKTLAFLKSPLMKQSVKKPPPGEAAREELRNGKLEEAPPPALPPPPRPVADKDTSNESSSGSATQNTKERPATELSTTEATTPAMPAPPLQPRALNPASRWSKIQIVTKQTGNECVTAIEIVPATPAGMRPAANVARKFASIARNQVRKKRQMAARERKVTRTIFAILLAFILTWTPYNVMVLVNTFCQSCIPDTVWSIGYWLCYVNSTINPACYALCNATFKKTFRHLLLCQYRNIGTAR
Description: mAChR M4 cell-based functional assay: calcium flux (Fluo-4, FDSS), positive allosteric modulator activity on the EC20 acetylcholine response, hM4-Gqi5 CHO-K1 cells. As to conditions: for Emax at 30 µM: CHO-K1, human M4, % ACh maximum at 30 μM; for EC50: human M4, PAM activity on EC20 acetylcholine response, calcium flux, read-out: Human M4 EC50. As for the experimental part: Human M4 cDNA, along with the chimeric G protein Gqi5, were transfected into Chinese hamster ovary (CHO-K1) cells purchased from the American Type Culture Collection using commercially available Lipofectamine 2000 transfection reagent (Dalby, B. et al., Methods (2004) 33(2), 95-103). hM4-Gqi5 cells were grown in Ham's F-12 medium containing 10% heat-inactivated fetal bovine serum (FBS), 20 mM […], 50 μg/mL G418 sulfate (CAS #108321-42-2), and 500 μg/mL Hygromycin B. rM4-Gqi5 cells were grown in DMEM containing 10% heat-inactivated FBS, 20 mM HEPES, 400 μg/mL G418 sulfate, and 500 μg/mL Hygromycin B.
For high throughput measurement of agonist-evoked increases in intracellular calcium, CHO-K1 cells stably expressing muscarinic receptors were plated in growth medium lacking G418 sulfate and hygromycin at 15,000 cells/20 μL/well in Greiner 384-well black-walled, tissue culture (TC)-treated, clear-bottom plates (VWR). Cells were incubated overnight at 37° C. and 5% C02. The next day, cells were washed using an ELX 405 (BioTek) with assay buffer; the final volume was then aspirated to 20 μL. Next, 20 μL of a 2.3 μM stock of Fluo-4/acetoxymethyl ester (Invitrogen, Carlsbad, CA), prepared as a 2.3 mM stock in DMSO and mixed in a 1:1 ratio with 10% (w/v) Pluronic F-127 and diluted in assay buffer, was added to the wells and the cell plates were incubated for 50 minutes at 37° C. and 5% C02. Dye was removed by washing with the ELX 405 and the final volume was aspirated to 20 μL. Compound master plates were formatted in an 11 point concentration-response curve (CRC) format (1:3 dilutions) in 100% DMSO with a starting concentration of 10 mM using a BRAVO liquid handler (Agilent). Test compound CRCs were then transferred to daughter plates (240 nL) using the Echo acoustic plate reformatter (Labcyte, Sunnyvale, CA) and then diluted into assay buffer (40 μL) to a 2× stock using a Thermo Fisher Combi (Thermo Fisher Scientific, Waltham, MA).
Calcium flux was measured using the Functional Drug Screening System (FDSS) 6000 or 7000 (Hamamatsu Corporation, Tokyo, Japan) as an increase in the fluorescent static ratio. Compounds were applied to cells (20 μL, 2×) using the automated system of the FDSS at 2-4 seconds into the protocol and the data were collected at 1 Hz. At 144 seconds, 10 μL of an EC20 concentration of the muscarinic receptor agonist acetylcholine was added (5×), followed by the addition of 12 μL of an EC80 concentration of acetylcholine at the 230 second time point (5×). Agonist activity was analyzed as a concentration-dependent increase in calcium mobilization upon compound addition. Positive allosteric modulator activity was analyzed as a concentration-dependent increase in the EC20 acetylcholine response. With the acetylcholine EC20 set as baseline, the test compound EC50 is determined as the concentration that produces an increase above baseline of 50% of the maximum increase in acetylcholine response elicted by the test compound. Antagonist activity was analyzed as a concentration-dependent decrease in the ECso acetylcholine response. Concentration-response curves were generated using a four-parameter logistical equation in XLFit curve fitting software (IDBS, Bridgewater, NJ) for Excel (Microsoft, Redmond, WA) or Prism (GraphPad Software, Inc., San Diego, CA).
Compounds were synthesized as described above. Activity (EC50 and Emax) was determined in the mAChR M4 cell-based functional assay as described above and the data are shown in Table 4. The compound numbers correspond to the compound numbers used in Examples 1-33 and Tables 1, 2, and 3.
A general note: Calcium flux is commonly read through the fluorescence of an indicator in the cells.

Data on 21 compounds can be found in patent publication US20250026752A1, “POSITIVE ALLOSTERIC MODULATORS OF THE MUSCARINIC ACETYLCHOLINE RECEPTOR M4” (Vanderbilt University, priority 2021, published 2025).

Regarding `Cn1nc(C(F)(F)F)cc1-c1cnc2c(c1)CN(c1ncnc3ccc(F)cc13)CC2` [Compound 267, 6-fluoro-4-(3-(1-methyl-3-(trifluoromethyl)-1H-pyrazol-5-yl)-7,8-dihydro-1,6-naphthyridin-6(5H)-yl)quinazoline], the maximal effect (Emax) (in general, the size of the effect at its maximum, as opposed to the concentration needed) at 30 µM was 81% and the EC50 – broadly, the concentration that produces a half-maximal response – stood at 0.2 µM.
With `Cc1ccccc1-c1cnc2c(c1)CN(c1ncnc3ccc(F)cc13)CC2` [Compound 292, 6-fluoro-4-(3-(o-tolyl)-7,8-dihydro-1,6-naphthyridin-6(5H)-yl)quinazoline], the Emax at 30 µM stood at 79% and the EC50 came to 0.66 µM.
On to `Cc1ncc(-c2cnc3c(c2)CN(c2nc(Cl)nc4ncccc24)CC3)s1` [Compound 35, 5-[6-(2-chloropyrido[2,3-d]pyrimidin-4-yl)-7,8-dihydro-5H-1,6-naphthyridin-3-yl]-2-methyl-thiazole], for which the Emax at 30 µM stood at 57% and the EC50 turned out to be 0.61 µM.
With `Cc1nc(N2CCc3ncc(-c4ccnn4C)cc3C2)c2cc(F)ccc2n1` [Compound 20, 6-fluoro-2-methyl-4-[3-(2-methylpyrazol-3-yl)-7,8-dihydro-5H-1,6-naphthyridin-6-yl]quinazoline], the Emax at 30 µM came to 86% and the 50% effective concentration (EC50) was found to be 0.15 µM.
As for `[2H]c1nc(N2CCc3ncc(-c4cnc(C)s4)cc3C2)c2cc(C)ccc2n1` [Compound 174, 5-[6-(2-deuterio-6-methyl-quinazolin-4-yl)-7,8-dihydro-5H-1,6-naphthyridin-3-yl]-2-methyl-thiazole], the Emax at 30 µM was 82% and the EC50 turned out to be 0.14 µM.
For the compound `Cc1cnn(C)c1-c1cnc2c(c1)CN(c1ncnc3cc(F)c(F)cc13)CC2` [Compound 270, 4-(3-(1,4-dimethyl-1H-pyrazol-5-yl)-7,8-dihydro-1,6-naphthyridin-6(5H)-yl)-6,7-difluoroquinazoline], the Emax at 30 µM is 86% and the concentration for a half-maximal effect (EC50) worked out at 0.1 µM.
As for `Fc1ccc2ncnc(N3CCc4ncc(-c5ccc(C6CC6)nc5)cc4C3)c2c1` [Compound 37, 4-[3-(6-cyclopropyl-3-pyridyl)-7,8-dihydro-5H-1,6-naphthyridin-6-yl]-6-fluoro-quinazoline], the Emax at 30 µM worked out at 88% and the EC50 was found to be 0.26 µM.
For `COc1ccc2ncnc(N3CCc4ncc(C(F)(F)F)cc4C3)c2c1` [Compound 139, 6-methoxy-4-[3-(trifluoromethyl)-7,8-dihydro-5H-1,6-naphthyridin-6-yl]quinazoline], the Emax at 30 µM was 97% and the EC50 stood at 0.2 µM.
Take `CC(C)n1nccc1-c1cnc2c(c1)CN(c1ncnc3cc(F)c(F)cc13)CC2` [Compound 268, 6,7-difluoro-4-(3-(1-isopropyl-1H-pyrazol-5-yl)-7,8-dihydro-1,6-naphthyridin-6(5H)-yl)quinazoline]: the Emax at 30 µM was 85% and the EC50 was 0.19 µM.
As for `CC1(C)CN(c2cnc3c(c2)CN(c2ncnc4ccc(F)cc24)CC3)CCO1` [Compound 103, 4-[6-(6-fluoroquinazolin-4-yl)-7,8-dihydro-5H-1,6-naphthyridin-3-yl]-2,2-dimethyl-morpholine], the Emax at 30 µM turned out to be 63% and the concentration for a half-maximal effect (EC50) was determined as 0.05 µM.
Regarding `Fc1ccc2nc(NC3CC3)nc(N3CCc4ncc(C(F)(F)F)cc4C3)c2c1` [Compound 196, N-cyclopropyl-6-fluoro-4-[3-(trifluoromethyl)-7,8-dihydro-5H-1,6-naphthyridin-6-yl]quinazolin-2-amine], the Emax at 30 µM was 98% and the EC50 turned out to be 0.41 µM.
In the same order, the values of `CC(O)(c1cnc2c(c1)CN(c1ncnc3cc(F)c(F)cc13)CC2)C(F)(F)F` (stereo not drawn) [Compound 290, 2-(6-(6,7-difluoroquinazolin-4-yl)-5,6,7,8-tetrahydro-1,6-naphthyridin-3-yl)-1,1,1-trifluoropropan-2-ol] are 91% and 0.2 µM.
`Cn1nccc1Nc1nc(N2CCc3ncc(C(F)(F)F)cc3C2)c2cc(F)ccc2n1` [Compound 197, 6-fluoro-N-(2-methylpyrazol-3-yl)-4-[3-(trifluoromethyl)-7,8-dihydro-5H-1,6-naphthyridin-6-yl]quinazolin-2-amine]: the Emax at 30 µM is 98% and the EC50 is 0.34 µM.
In the same order, the values of `Cc1ncc(-c2cnc3c(c2)CN(c2nc(C(F)(F)F)nc4ccc(F)cc24)CC3)s1` [Compound 66, 5-[6-[6-fluoro-2-(trifluoromethyl)quinazolin-4-yl]-7,8-dihydro-5H-1,6-naphthyridin-3-yl]-2-methyl-thiazole] are 35% and 0.81 µM.
For the compound `[2H]c1nc2c(cc1N1CCOC(C)(C)C1)CN(c1ncnc3ccc(F)cc13)CC2` [Compound 228, 4-(6-(6-fluoroquinazolin-4-yl)-5,6,7,8-tetrahydro-1,6-naphthyridin-3-yl-2-d)-2,2-dimethylmorpholine], the Emax at 30 µM was found to be 97% and the EC50 was determined as 0.04 µM.
As for `Cc1nc(N2CCc3ncc(-c4ccc(C(F)(F)F)nc4)cc3C2)c2cc(F)ccc2n1` [Compound 3, 6-fluoro-2-methyl-4-[3-[6-(trifluoromethyl)-3-pyridyl]-7,8-dihydro-5H-1,6-naphthyridin-6-yl]quinazoline], the Emax at 30 µM worked out at 75% and the concentration for a half-maximal effect (EC50) came out at 0.46 µM.
In the same order, the values of `Cc1ccc2ncnc(N3CCc4ncc(-c5cnc(F)cc5C)cc4C3)c2c1` [Compound 309, 4-(3-(6-fluoro-4-methylpyridin-3-yl)-7,8-dihydro-1,6-naphthyridin-6(5H)-yl)-6-methylquinazoline] are 83% and 0.04 µM.
With `Cc1ccc(-c2cnc3c(c2)CN(c2ncnc4ccc(Cl)cc24)CC3)cn1` [Compound 43, 6-chloro-4-[3-(6-methyl-3-pyridyl)-7,8-dihydro-5H-1,6-naphthyridin-6-yl]quinazoline], the Emax at 30 µM was 79% and the EC50 is 0.07 µM.
Regarding `Cc1ccc2ncnc(N3CCc4ncc(Nc5ccnn5C)cc4C3)c2c1` [Compound 96, N-(2-methylpyrazol-3-yl)-6-(6-methylquinazolin-4-yl)-7,8-dihydro-5H-1,6-naphthyridin-3-amine], the maximal response (Emax) at 30 µM worked out at 94% and the EC50 was 0.08 µM.
On the same counts, the results for `Clc1ccc2nc(C3CC3)nc(N3CCc4ncc(N5CCCn6nccc65)cc4C3)c2c1` [Compound 192, 6-chloro-2-cyclopropyl-4-[3-(6,7-dihydro-5H-pyrazolo[1,5-a]pyrimidin-4-yl)-7,8-dihydro-5H-1,6-naphthyridin-6-yl]quinazoline] are 100% and 0.41 µM.
For the compound `CN1CCN(c2nc(N3CCc4ncc(Nc5ccnn5C)cc4C3)c3cc(F)ccc3n2)CC1` [Compound 211, 6-[6-fluoro-2-(4-methylpiperazin-1-yl)quinazolin-4-yl]-N-(2-methylpyrazol-3-yl)-7,8-dihydro-5H-1,6-naphthyridin-3-amine], the maximal response (Emax) at 30 µM came out at 80% and the EC50 stood at 0.47 µM.
